Experiments:
Type in all cases: cell-based
[1] = molecular target: T1, EGFR WT (Ba/F3 cells) (Homo sapiens, UniProt P00533); assay: Inhibitor activity on EGFR-dependent cell growth (CellTiter-Glo, 72 h), Ba/F3 EGFR WT; conditions: read-out: BaF3 WT IC50
T1 construct: expressed in transfected cells; host or cells: Ba/F3 (murine pro-B cells), retroviral transduction, puromycin selection, maintained with EGF
How it was run: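 This growth assay used Ba/F3 cells that depend on wild-type EGFR and are kept in EGF without IL3. Compounds were made up as 10 mM DMSO stocks and diluted 3-fold over 10 points. 120 nL went onto 600 cells/well. After 72 hours, 40 μL CellTiter-Glo was added and luminescence read on EnVision after 30 min.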

[2] = molecular target: T2, EGFR L858R/C797S (Ba/F3 cells) (Homo sapiens, UniProt P00533, C797S/L858R); assay: Inhibitor activity on EGFR phosphorylation (pEGFR AlphaLISA, 2 h), Ba/F3 EGFR L858R/C797S
T2 construct: expressed in transfected cells; host or cells: Ba/F3 (murine pro-B cells), retroviral transduction, puromycin selection, IL3-independent pool
Description: (§1) Example B. Inhibitor Activity on EGFR phosphorylation (pEGFR)
(§2) EGFR mutant Ba/F3 cells were generated by transduction with retrovirus containing vectors expressing EGFR L858R, EGFR exon 19del, EGFR L858R/C797S, EGFR exon 20 NPG Ins D770_N771, EGFR exon 20 ASV Ins V769_D770, or EGFR exon 20 SVD Ins D770_N771 genes along with a puromycin selection marker. Transduced cells are selected with puromycin for 7 days and are then be transferred into culture media without Interleukin 3 (IL3). Surviving cells are confirmed to express EGFR by Western blot and maintained as a pool. CUTO14 cells were obtained from Dr. Robert C. Doebele at the University of Colorado. The IC50 date are included in Table 6 and Table 7.
(§3) 1.1 Cells are harvested from flask into cell culture medium and the cell number counted.
(§4) 1.2 Cells are diluted with culture medium to the desired density and 40 μL of cell suspension is added into each well of 384-well cell culture plate and the seeding density is 50K cells/well (Ba/F3) or 12.5K cells/well (CUTO14).
(§5) 2 Compound Preparation and Treatment
(§6) 2.1 Test compounds are dissolved to 10 mM in a DMSO stock solution. 45 μL of stock solution is transferred to a 384 polypropylene plate (pp-plate). Perform 3-fold, 10-point dilution via transferring 15 μL compound into 30 μL DMSO using a TECAN (EVO200) liquid handler.
(§7) 2.2 Spin plates at room temperature at 1,000 RPM for 1 minute.
(§8) 2.3 Transfer 5 nL of diluted compound from compound source plate into the cell plate.
(§9) 2.4 After compound treatment for 2 hours, perform pEGFR detection by AlphaLISA for compound treatment plates as described in “Detection” section.
(§10) 3 Detection by pEGFR AlphaLISA (Perkin-Elmer)
(§11) 3.1 Plates are removed from incubators and equilibrated at room temperature for 10 minutes, and media was removed
(§12) 3.2 10 μL of lysis buffer is added and plates shaken at 600 rpm for 1 hr.
(§13) 3.3 Prepare acceptor mix just before use and dispense 5 μL of acceptor mix to all the wells. Shake 350 rpm for Ihr in the dark
(§14) 3.4 Prepare donor mix under low light conditions prior to use. Dispense 5 μL of donor mix to all the wells. Mix well on the shaker, seal and wrap in aluminum foil and incubate 1.5 hrs at room temperature in the dark
(§15) 3.5 Transfer 18.5 μL mixture to OptiPlate 384, and read using an Envision. The IC50 date were included in Table 6 and Table 7.

[3] = molecular target: T3, EGFR exon 20 ASV Ins V769_D770 (Ba/F3 cells) (Homo sapiens, UniProt P00533, INS769ASV); assay: Inhibitor activity on EGFR-dependent cell growth (CellTiter-Glo, 72 h), Ba/F3 EGFR exon 20 ASV Ins; conditions: read-out: BaF3 ASV IC50
T3 construct: expressed in transfected cells; host or cells: Ba/F3 (murine pro-B cells), retroviral transduction, puromycin selection, IL3-independent pool
How it was run: (§16)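 IC50s derive from a sigmoidal dose–response fit of CellTiter-Glo signal. The signal was normalised between […]-treated cells and cell-free medium. Ba/F3 mutant-EGFR cells, seeded at 400–800/well depending on the line, had 72 h of exposure to a 10-point, 3-fold compound series.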

[4] = molecular target: T4, EGFR exon 19del (Ba/F3 cells) (Homo sapiens, UniProt P00533); assay: Inhibitor activity on EGFR-dependent cell growth (CellTiter-Glo, 72 h), Ba/F3 EGFR exon 19del; conditions: Ba/F3 EGFR exon 19del cell growth, read-out: BaF3 Del19 IC50
How it was run: (§17)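 72 h proliferation, Ba/F3 EGFR mutants (no IL3, puromycin-selected pools, EGFR confirmed by Western blot). Seeding of 400 L858R, 600 L858R/C797S and 800 exon 19del/FQEA cells per well. CellTiter-Glo used; controls were […] (high) and medium alone (low).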

[5] = molecular target: T5, EGFR L858R (Ba/F3 cells) (Homo sapiens, UniProt P00533, L858R); assay: Inhibitor activity on EGFR-dependent cell growth (CellTiter-Glo, 72 h), Ba/F3 EGFR L858R; conditions: read-out: BaF3 L858R IC50
T5 construct: expressed in transfected cells; host or cells: Ba/F3 (murine pro-B cells), retroviral transduction, puromycin selection, IL3-independent pool
How it was run: as §17

[6] = molecular target: T6, EGFR exon 20 FQEA Ins A763_V764 (Ba/F3 cells) (Homo sapiens, UniProt P00533, INS763FQEA); assay: Inhibitor activity on EGFR-dependent cell growth (CellTiter-Glo, 72 h), Ba/F3 EGFR exon 20 FQEA Ins; conditions: read-out: BaF3 FQEA IC50
T6 construct: expressed in transfected cells; host or cells: Ba/F3 (murine pro-B cells), retroviral transduction, puromycin selection, IL3-independent pool
How it was run: as §17

[7] = molecular target: T7, EGFR exon 20 SVD Ins D770_N771 (Ba/F3 cells) (Homo sapiens, UniProt P00533, INS770SVD); assay: Inhibitor activity on EGFR-dependent cell growth (CellTiter-Glo, 72 h), Ba/F3 EGFR exon 20 SVD Ins; conditions: read-out: BaF3 SVD IC50
T7 construct: expressed in transfected cells; host or cells: Ba/F3 (murine pro-B cells), retroviral transduction, puromycin selection, IL3-independent pool
How it was run: as §16

[8] = molecular target: T4, EGFR exon 19del (Ba/F3 cells); assay: Inhibitor activity on EGFR phosphorylation (pEGFR AlphaLISA, 2 h), Ba/F3 EGFR exon 19del; conditions: read-out: Del19 IC50 (pEGFR)
Description: as §1, §2, §3, §4, §5, §6, §7, §8, §9, §10, §11, §12, §13, §14, §15

[9] = molecular target: T5, EGFR L858R (Ba/F3 cells); assay: Inhibitor activity on EGFR phosphorylation (pEGFR AlphaLISA, 2 h), Ba/F3 EGFR L858R
Description: as §1, §2, §3, §4, §5, §6, §7, §8, §9, §10, §11, §12, §13, §14, §15

[10] = molecular target: T2, EGFR L858R/C797S (Ba/F3 cells); assay: Inhibitor activity on EGFR-dependent cell growth (CellTiter-Glo, 72 h), Ba/F3 EGFR L858R/C797S; conditions: read-out: BaF3 L858R/C797S IC50
Description: Example A. Inhibitor Activity on EGFR-Dependent Cell Growth
Cell lines are generated by transducing Ba/F3 cells with retroviruses containing vectors with EGFR WT, EGFR L858R, EGFR exon 19del, EGFR L858R/C797S, EGFR exon 20 NPG Ins D770_N771, EGFR exon 20 ASV Ins V769_D770, EGFR exon 20 SVD Ins D770_N771, or EGFR exon 20 FQEA Ins A763_V764 genes and a puromycin selection marker. Transduced cells are selected with puromycin for 7 days and are then be transferred into culture media without Interleukin 3 (IL3). EGFR WT cells are maintained with supplemental EGF. Surviving cells are confirmed to express EGFR by Western blot and maintained as a pool. The IC50 date were included in Table 6 and Table 7.
as §3
1.2 Cells are diluted with culture medium to the desired density and 40 μL of cell suspension is added into each well of 384-well cell culture plate and the seeding density is 800 (FQEA, exon 19del), 600 (WT, NPG, L858R/C797S), or 400 (ASV, SVD, L858R) cells/well.
as §5, §6, §7
2.3 Transfer 120 nL of diluted compound from compound source plate into the cell plate.
2.4 After compound treatment for 72 hours, perform CTG detection for compound treatment plates as described in “Detection” section.
3.1 Plates are removed from incubators and equilibrated at room temperature for 15 minutes.
3.2 Thaw the CellTiter Glo reagents and allow to equilibrate to room temperature before the experiment.
3.3 Add 40 μL of CellTiter-Glo reagent into each well (at 1:1 to culture medium). Then place the plates at room temperature for 30 min followed by reading on EnVision.
4.1 Inhibition activity is calculated following the formula below:
% Inhibition=100×(LumHC−LumSample)/(LumHC−LumLC) • where HC is obtained from cells treated with 0.1% DMSO only; and LC is obtained from culture medium only.
4.2 2. Calculate the IC50 by fitting the Curve using Xlfit (v5.3.1.3), equation 201.
Y=Bottom+(Top−Bottom)/(1+10^((Log IC50−X)*HillSlope))

T6 sequence (P00533 with tags, fused parts or gaps INS763FQEA): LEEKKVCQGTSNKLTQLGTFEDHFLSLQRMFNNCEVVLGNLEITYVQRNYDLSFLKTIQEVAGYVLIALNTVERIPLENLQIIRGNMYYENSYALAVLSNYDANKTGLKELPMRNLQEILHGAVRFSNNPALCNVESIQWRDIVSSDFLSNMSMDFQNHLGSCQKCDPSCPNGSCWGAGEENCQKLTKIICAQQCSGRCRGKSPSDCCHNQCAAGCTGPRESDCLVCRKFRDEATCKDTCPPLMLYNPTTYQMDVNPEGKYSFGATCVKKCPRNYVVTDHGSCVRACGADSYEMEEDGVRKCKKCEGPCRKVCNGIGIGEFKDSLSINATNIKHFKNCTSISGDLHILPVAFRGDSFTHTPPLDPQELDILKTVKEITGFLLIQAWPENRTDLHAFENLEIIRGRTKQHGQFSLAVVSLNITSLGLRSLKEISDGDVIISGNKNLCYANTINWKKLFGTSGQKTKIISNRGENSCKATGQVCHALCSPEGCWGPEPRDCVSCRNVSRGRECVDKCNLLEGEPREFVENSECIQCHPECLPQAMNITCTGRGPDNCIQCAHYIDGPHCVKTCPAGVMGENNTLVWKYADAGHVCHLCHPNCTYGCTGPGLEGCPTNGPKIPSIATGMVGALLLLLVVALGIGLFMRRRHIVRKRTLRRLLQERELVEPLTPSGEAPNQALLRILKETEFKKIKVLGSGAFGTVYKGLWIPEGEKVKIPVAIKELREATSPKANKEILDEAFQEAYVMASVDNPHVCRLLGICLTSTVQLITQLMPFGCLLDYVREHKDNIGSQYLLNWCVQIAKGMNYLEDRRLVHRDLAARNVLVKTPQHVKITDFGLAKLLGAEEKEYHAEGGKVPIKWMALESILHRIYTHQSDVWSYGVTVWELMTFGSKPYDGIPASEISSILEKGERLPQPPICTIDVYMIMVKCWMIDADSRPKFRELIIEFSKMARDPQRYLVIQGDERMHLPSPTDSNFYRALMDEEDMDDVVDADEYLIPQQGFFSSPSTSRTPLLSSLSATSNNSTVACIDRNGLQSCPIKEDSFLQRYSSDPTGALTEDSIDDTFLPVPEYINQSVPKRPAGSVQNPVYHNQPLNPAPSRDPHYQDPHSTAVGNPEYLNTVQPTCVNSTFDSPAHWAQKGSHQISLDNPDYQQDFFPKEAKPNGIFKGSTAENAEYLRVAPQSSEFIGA
T4 sequence (P00533 with tags, fused parts or gaps DEL746-750): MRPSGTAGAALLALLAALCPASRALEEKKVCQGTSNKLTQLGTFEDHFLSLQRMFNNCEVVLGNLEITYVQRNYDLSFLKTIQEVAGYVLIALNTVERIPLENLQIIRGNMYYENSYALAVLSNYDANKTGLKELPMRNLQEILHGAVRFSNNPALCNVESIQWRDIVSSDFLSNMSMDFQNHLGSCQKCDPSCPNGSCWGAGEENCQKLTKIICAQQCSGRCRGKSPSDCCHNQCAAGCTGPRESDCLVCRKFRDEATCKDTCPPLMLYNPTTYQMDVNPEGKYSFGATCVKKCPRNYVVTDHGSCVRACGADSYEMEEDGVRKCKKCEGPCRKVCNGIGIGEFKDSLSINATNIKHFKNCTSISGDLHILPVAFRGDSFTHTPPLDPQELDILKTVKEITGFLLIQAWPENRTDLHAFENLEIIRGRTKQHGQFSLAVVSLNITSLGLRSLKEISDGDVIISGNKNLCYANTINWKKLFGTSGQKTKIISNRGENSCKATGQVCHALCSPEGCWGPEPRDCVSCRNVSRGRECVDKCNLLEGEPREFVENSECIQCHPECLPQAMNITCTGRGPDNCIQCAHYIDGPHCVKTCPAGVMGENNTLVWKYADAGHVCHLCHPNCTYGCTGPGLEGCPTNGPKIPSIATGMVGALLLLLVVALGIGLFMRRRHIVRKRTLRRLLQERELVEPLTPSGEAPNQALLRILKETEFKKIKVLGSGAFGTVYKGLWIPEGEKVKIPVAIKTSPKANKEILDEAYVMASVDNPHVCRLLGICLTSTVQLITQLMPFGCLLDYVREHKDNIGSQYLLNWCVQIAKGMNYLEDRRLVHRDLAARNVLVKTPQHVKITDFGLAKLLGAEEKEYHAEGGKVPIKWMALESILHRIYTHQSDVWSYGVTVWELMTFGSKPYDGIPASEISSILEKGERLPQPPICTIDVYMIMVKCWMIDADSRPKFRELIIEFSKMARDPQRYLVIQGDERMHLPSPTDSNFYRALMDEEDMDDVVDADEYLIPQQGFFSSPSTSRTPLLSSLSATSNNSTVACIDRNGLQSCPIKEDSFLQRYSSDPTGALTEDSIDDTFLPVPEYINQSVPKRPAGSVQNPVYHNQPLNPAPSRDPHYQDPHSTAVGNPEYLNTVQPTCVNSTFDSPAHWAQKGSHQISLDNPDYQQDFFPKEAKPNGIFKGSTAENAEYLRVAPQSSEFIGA
T5 sequence (P00533 25-1210 L858R): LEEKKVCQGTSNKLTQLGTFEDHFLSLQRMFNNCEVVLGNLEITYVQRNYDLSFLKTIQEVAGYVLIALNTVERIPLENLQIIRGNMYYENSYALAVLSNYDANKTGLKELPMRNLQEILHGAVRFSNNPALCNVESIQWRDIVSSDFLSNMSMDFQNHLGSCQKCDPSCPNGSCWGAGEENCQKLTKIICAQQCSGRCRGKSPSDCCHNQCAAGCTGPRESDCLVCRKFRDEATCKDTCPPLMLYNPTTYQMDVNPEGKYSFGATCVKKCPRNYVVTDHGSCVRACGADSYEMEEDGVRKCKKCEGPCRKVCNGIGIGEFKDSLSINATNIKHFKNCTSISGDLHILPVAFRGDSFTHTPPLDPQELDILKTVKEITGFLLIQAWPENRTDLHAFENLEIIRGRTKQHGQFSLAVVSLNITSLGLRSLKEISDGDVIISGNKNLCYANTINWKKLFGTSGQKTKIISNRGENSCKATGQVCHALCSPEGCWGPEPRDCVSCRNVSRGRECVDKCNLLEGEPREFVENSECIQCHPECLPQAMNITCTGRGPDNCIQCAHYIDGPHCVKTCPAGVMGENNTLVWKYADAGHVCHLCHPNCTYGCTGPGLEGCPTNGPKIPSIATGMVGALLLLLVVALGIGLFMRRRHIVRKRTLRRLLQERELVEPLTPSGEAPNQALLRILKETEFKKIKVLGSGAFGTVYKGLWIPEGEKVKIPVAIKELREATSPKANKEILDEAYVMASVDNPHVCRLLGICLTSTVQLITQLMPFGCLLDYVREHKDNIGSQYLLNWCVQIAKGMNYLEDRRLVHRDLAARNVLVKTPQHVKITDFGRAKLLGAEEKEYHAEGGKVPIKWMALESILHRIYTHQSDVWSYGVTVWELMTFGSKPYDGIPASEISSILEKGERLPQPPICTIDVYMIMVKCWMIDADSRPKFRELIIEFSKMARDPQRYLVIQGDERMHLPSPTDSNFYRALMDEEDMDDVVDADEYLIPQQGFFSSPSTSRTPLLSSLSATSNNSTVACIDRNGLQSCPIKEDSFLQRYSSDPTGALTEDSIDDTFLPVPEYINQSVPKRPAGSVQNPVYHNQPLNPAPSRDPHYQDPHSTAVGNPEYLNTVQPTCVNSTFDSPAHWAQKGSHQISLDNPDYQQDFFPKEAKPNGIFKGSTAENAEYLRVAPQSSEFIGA
T1 sequence (P00533 25-1210): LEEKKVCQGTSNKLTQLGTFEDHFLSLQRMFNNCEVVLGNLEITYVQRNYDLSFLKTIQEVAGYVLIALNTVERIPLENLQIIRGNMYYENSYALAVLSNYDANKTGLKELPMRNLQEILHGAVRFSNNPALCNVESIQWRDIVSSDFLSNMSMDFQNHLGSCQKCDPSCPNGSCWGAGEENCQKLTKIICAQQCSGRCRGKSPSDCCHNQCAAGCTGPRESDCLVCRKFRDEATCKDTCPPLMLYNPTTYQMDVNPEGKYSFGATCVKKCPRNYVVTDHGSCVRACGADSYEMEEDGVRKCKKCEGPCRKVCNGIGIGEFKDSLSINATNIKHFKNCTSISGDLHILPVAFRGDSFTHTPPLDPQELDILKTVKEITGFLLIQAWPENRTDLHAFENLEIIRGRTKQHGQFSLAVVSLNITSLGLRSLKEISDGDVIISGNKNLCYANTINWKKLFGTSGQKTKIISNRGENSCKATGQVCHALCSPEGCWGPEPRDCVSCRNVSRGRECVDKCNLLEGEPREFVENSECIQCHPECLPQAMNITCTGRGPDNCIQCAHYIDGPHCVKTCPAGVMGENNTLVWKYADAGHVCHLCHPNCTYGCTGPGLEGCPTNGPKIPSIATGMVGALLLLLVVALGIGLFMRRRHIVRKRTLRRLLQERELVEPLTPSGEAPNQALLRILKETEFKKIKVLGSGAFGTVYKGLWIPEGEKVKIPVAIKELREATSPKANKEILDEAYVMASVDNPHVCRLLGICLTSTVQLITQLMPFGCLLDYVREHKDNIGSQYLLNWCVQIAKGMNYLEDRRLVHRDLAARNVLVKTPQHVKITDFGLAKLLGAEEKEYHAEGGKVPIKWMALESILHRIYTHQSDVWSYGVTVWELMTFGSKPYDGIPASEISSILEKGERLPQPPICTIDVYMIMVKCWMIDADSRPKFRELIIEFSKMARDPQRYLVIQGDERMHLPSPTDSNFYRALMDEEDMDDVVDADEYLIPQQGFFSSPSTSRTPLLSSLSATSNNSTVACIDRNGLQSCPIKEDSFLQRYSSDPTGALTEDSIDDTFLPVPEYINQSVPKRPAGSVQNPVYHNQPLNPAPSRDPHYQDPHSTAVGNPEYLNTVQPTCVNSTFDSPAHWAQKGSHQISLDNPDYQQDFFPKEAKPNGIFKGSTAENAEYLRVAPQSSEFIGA

SMILES | IC50 [1] | IC50 [2] | IC50 [3] | IC50 [4] | IC50 [5] | IC50 [6] | IC50 [7] | IC50 [8] | IC50 [9] | IC50 [10]
COc1ncc2nccc(-c3[nH]c4c(c3Nc3cccc(F)c3C)C(=O)NCC4)c2n1 [Compound 794, 3-[(3-fluoro-2-methylphenyl)amino]-2-[2-methoxypyrido[3,2-d]pyrimidin-8-yl]-1H,5H,6H,7H-pyrrolo[3,2-c]pyridin-4-one] | 100 to 1000 nM | < 100 nM | < 100 nM | < 100 nM | < 100 nM | < 100 nM | < 100 nM | < 100 nM | < 100 nM | < 100 nM
COc1c(F)cccc1Nc1c(-c2ccnc3ccc(C)nc23)[nH]c2c1C(=O)NCC2 [Compound 809, 3-[(3-fluoro-2-methoxyphenyl)amino]-2-(6-methyl-1,5-naphthyridin-4-yl)-1H,5H,6H,7H-pyrrolo[3,2-c]pyridin-4-one] | 100 to 1000 nM | < 100 nM | < 100 nM | < 100 nM | < 100 nM | < 100 nM | < 100 nM | < 100 nM | < 100 nM | < 100 nM
COc1c(Cl)cccc1Nc1c(-c2ccncc2F)[nH]c2c1C(=O)NC[C@@H]2CC(F)F [Compound 819, (7S)-3-[(3-chloro-2-methoxyphenyl)amino]-7-(2,2-difluoroethyl)-2-(3-fluoropyridin-4-yl)-1H,5H,6H,7H-pyrrolo[3,2-c]pyridin-4-one] | > 1000 nM | < 100 nM | 100 to 1000 nM | < 100 nM | < 100 nM | 100 to 1000 nM | 100 to 1000 nM | < 100 nM | < 100 nM | < 100 nM
COc1c(Cl)cccc1Nc1c(-c2ccncc2F)[nH]c2c1C(=O)NC[C@H]2CC(F)F [Compound 820, (7R)-3-[(3-chloro-2-methoxyphenyl)amino]-7-(2,2-difluoroethyl)-2-(3-fluoropyridin-4-yl)-1H,5H,6H,7H-pyrrolo[3,2-c]pyridin-4-one] | > 1000 nM | < 100 nM | 100 to 1000 nM | < 100 nM | < 100 nM | 100 to 1000 nM | 100 to 1000 nM | < 100 nM | < 100 nM | < 100 nM
COc1ncc2nccc(-c3[nH]c4c(c3Nc3cccc(F)c3OC)C(=O)NCC4)c2n1 [compound 409] | 100 to 1000 nM | < 100 nM | < 100 nM | < 100 nM | < 100 nM | < 100 nM | < 100 nM | < 100 nM | < 100 nM | < 100 nM
COc1c(Cl)cccc1Nc1c(-c2ccnc3ccc(OCC(F)F)nc23)[nH]c2c1C(=O)NCC2 [compound 733, 3-[(3-chloro-2-methoxyphenyl)amino]-2-[6-(2,2-difluoroethoxy)-1,5-naphthyridin-4-yl]-1H,5H,6H,7H-pyrrolo[3,2-c]pyridin-4-one] | 100 to 1000 nM | < 100 nM | < 100 nM | < 100 nM | < 100 nM | < 100 nM | < 100 nM | < 100 nM | < 100 nM | < 100 nM
COc1c(Cl)cccc1Nc1c(-c2ccncc2F)[nH]c2c1C(=O)NC[C@@]21CCN(CC(F)F)C1 [compound 822] | > 1000 nM | < 100 nM | 100 to 1000 nM | < 100 nM | < 100 nM | 100 to 1000 nM | < 100 nM | < 100 nM | < 100 nM | < 100 nM
